From article PMC11375794, “Discovery of new Hsp90–Cdc37 protein–protein interaction inhibitors: in silico screening and optimization of anticancer activity” (RSC Advances, 2024) come the findings set out here.

One test deals with leukemia cell line THP-1. Nature of the test: MTS cell viability (antiproliferative) assay in THP-1. The test is classed as cell-based. Particulars: mean ± SD; for THP-1 IC50: 72 hours; for IC50: Homo sapiens, THP-1, 72 hours. The method, then: (§1) Hormone-positive breast cancer cell line MCF-7 (ATCC-HTB-22; ATCC) was grown in Dulbecco's Modified Eagle's Medium (DMEM), while Ewing sarcoma cell line SK-N-MC (a kind gift from Beat Schäfer) and THP-1 (ATCC-TIB-202; ATCC) cells were grown in Roswell Park Memorial Institute (RPMI) 1640. The medium was supplemented with 10% heat-inactivated fetal bovine serum (Gibco, Thermo Fisher Scientific, Waltham, MA, USA), 100 U per mL penicillin, 100 μg per mL streptomycin, and 2 mM L-glutamine (all from Sigma-Aldrich, St. Louis, MO, USA). All cell lines were incubated at 37 °C in a 5% CO2 atmosphere.
(§2) The antiproliferative activity of the compounds was evaluated against MCF-7 (ATCC-HTB-22; ATCC), SK-N-MC (a kind gift from Beat Schäfer) and THP-1 (ATCC-TIB-202; ATCC) cancer cell lines using the MTS assay (Promega, Madison, WI, USA). Cells were seeded in 96-well plates at a density of 2 × 10^4 cells per mL in 100 μL of growth medium for THP-1 and were treated with compounds and controls directly, while 3 × 10^3 cells per mL for MCF-7 and SK-N-MC were seeded in 100 μL of growth medium and allowed to adhere overnight following the treatment. In all cases the cells were treated with respective newly prepared compounds, positive controls (17-DMAG for MCF-7 and SK-N-MC; PU-H71 for THP-1) and a vehicle control (0.5% DMSO). The incubation time after treatment was 72 hours, then CellTiter96® Aqueous One Solution Reagent (Promega, Madison, WI, USA) was added to each well. Following a 3 hours incubation, absorbance was measured at 492 nm using BioTek's Synergy™ 4 Hybrid Microplate Reader (Winooski, VT, USA). The measurements were performed in two biological repetitions and each time the experiment was performed in a triplicate. The IC50 values, representing the concentration of inhibitor required for half-maximal inhibition, are the average of three independent experiments and were calculated using GraphPad Prism 9.5.0 software (San Diego, CA, USA).

The subject of test [1] is Ewing sarcoma cell line SK-N-MC. Nature of the test: MTS cell viability (antiproliferative) assay in SK-N-MC. It counts as cell-based. Conditions: Homo sapiens, SK-N-MC, 72 hours, mean ± SD. The protocol:
as §1, §2

Test [2] has as its target T1, full-length Hsp90β and Cdc37 (Homo sapiens, UniProt P08238).
T1 construct: host or cells: Escherichia coli strain Rosetta (Hsp90β)
Nature of the test: MST PPI inhibition evaluation: Kd for Hsp90β in the presence of Cdc37. It counts as binding. The protocol: The full-length Hsp90β was labeled using the Monolith His-Tag Labeling Kit RED-tris-NTA following the manufacturer's instructions (NanoTemper Technologies GmbH, Munich, Germany). The proteins were first diluted to a concentration of 8 nM in assay buffer (50 mM Tris–HCl, pH 7.4, containing 150 mM NaCl, 5% ethanol, and 10 mM MgCl2). To determine the Kd values, the proteins were mixed with the test compounds in a 1 : 1 ratio as stated in the manufacturers protocol. The final concentration of Hsp90β was 4 nM, with compounds added in the following ranges: 1000 μM to 5.86 μM for 8c; 312.5 μM to 0.15 μM for 13g and 125 μM to 3.91 μM for 1. Two independent Kd determinations were performed for compounds 8c and 13g. […] Next, Cdc37 (AR09008PUN, OriGene Technologies, Inc., Rockville, MD, USA) was acquired for the purpose of PPI inhibition evaluation between full-length Hsp90β and Cdc37. […] In all experiments the compounds were incubated with the proteins for 15 minutes in the dark at room temperature. The mixtures were then loaded into Monolith NT.115 Premium Capillaries (NanoTemper Technologies GmbH, Munich, Germany). Thermophoresis was induced at 1475 ± 15 nm and measured using a Monolith NT.115 pico instrument (NanoTemper Technologies GmbH, Munich, Germany). Measurements were conducted at ambient temperature (24–25 °C), with excitation power set to 20% and MST power set to 40%, and a laser on time of 5 seconds. To calculate the Kd values, the average fluorescence responses for each concentration were plotted against the logarithm of compound concentrate on using GraphPad Prism software (GraphPad Software, Inc., La Jolla, CA).

T1 sequence (P08238 whole entry): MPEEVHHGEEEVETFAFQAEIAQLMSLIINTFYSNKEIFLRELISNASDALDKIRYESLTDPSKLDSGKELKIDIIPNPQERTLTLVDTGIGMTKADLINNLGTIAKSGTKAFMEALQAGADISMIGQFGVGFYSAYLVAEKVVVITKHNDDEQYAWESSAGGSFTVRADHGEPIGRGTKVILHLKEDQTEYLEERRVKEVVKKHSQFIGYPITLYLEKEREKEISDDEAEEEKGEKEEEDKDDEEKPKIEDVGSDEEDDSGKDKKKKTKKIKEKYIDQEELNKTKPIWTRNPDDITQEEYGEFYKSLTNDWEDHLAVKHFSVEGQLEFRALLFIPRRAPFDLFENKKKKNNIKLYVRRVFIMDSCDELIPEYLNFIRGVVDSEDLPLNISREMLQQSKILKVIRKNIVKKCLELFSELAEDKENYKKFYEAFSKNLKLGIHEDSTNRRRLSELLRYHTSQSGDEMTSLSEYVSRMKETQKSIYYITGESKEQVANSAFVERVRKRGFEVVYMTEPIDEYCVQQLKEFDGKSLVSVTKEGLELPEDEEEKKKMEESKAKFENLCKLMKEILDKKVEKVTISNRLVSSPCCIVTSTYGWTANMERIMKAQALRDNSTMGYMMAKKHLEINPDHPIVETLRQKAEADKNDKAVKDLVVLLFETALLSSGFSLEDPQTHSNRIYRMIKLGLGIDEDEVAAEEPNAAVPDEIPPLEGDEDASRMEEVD

Turning to `CN(CCOc1ccccc1)C(=O)c1csc(Nc2cc(N3CCNCC3)ncn2)n1` [Compound 8c, N-Methyl-N-(2-phenoxyethyl)-2-((6-(piperazin-1-yl)pyrimidin-4-yl)amino)thiazole-4-carboxamide], the “THP-1 IC50” value in the test with leukemia cell line THP-1 is “retained some inhibitory activity”. Moreover, the 50% inhibitory concentration (IC50) in the test with leukemia cell line THP-1 amounted to 33.9 ± 8.5 µM; in test [1] it was 12.8 ± 0.9 µM. For the same compound, the dissociation constant Kd in test [2] (0.5 μM Cdc37) is 81.7 µM; in test [2] (1.0 μM Cdc37), 90.2 µM; in test [2] (2.0 μM Cdc37), 98.2 µM.
With `O=C(NCCOc1ccccc1)c1ccc(Nc2cc(N3CCNCC3)ncn2)cc1` [Compound 13g, N-(2-Phenoxyethyl)-4-((6-(piperazin-1-yl)pyrimidin-4-yl)amino)benzamide], in the test with leukemia cell line THP-1, the “THP-1 IC50” value is recorded as “retained some inhibitory activity” and the IC50 stood at 41.5 ± 6.3 µM. For the same compound, the half-maximal inhibitory concentration (IC50) in test [1] stood at 20 ± 1.5 µM. Further, in test [2] (1.0 μM Cdc37), the “Kd (Hsp90β) in presence of Cdc37” value is “too low for quantification”.

By IC50 is commonly meant the concentration that inhibits the measured activity by half. As a reminder, the Kd is the concentration at which binding is half-saturated.
